We go through eight compounds from PubChem BioAssay (NCI).

Some test systems named below: A498 renal; DU-145 prostate; HCT-116 colon; HOP-62 NSCLC; MCF7 breast; MDA-MB-435; NCI-H460 lung; RPMI-8226 leukemia; SN12C renal; UACC-62 melanoma.
Common to all, as to assay: NCI anticancer screen, dose series, 48 h

Values joined by “and” are separate entries in the source; they are usually repeats but may differ in a detail not shown here. Identical values can stand only once.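 Results reflect a 48-hour exposure of cells in 96-well plates to compound at five concentrations. Abbreviation: GI50, concentration required for 50% inhibition of growth. TGI: total growth inhibition.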

Turning to `CC(C)NC[C@@H](C(=O)N1CCN(c2ncnc3c2[C@H](C)C[C@H]3O)CC1)c1ccc(Cl)cc1`, the GI50 is 0.396 µM and 0.24 µM in the test on A498 renal; > 10 µM and 40.3 µM with DU-145 prostate; > 10 µM and 23.8 µM in the test with HCT-116 colon; > 10 µM and 11.9 µM in the test on HOP-62 NSCLC; 1.6 µM and 1.74 µM in the test on MCF7 breast; > 10 µM and 20.9 µM in the test with MDA-MB-435. For the same compound, the GI50 with NCI-H460 lung was 1.47 µM and 2.33 µM; in the test on RPMI-8226 leukemia, > 10 µM and 38.1 µM; with SN12C renal, > 10 µM and 44.7 µM; in the test on UACC-62 melanoma it was 1.9 µM and 6 µM. Further, the TGI with A498 renal is 5.88 µM and 4.3 µM; in the test on DU-145 prostate it was above 100 µM; in the test on HCT-116 colon, above 100 µM; in the test on HOP-62 NSCLC, above 100 µM; in the test on MCF7 breast, above 100 µM; in the test on MDA-MB-435, above 100 µM. The TGI in the test with NCI-H460 lung, in the test with RPMI-8226 leukemia, with SN12C renal and in the test on UACC-62 melanoma was above 100 µM each time.
Consider `Cc1c(C(=O)/C=C/c2csc3ccccc23)[n+](=O)c2ccccc2n1[O-]`, for which the GI50 was 3.38 µM with A498 renal; 1.46 µM with DU-145 prostate; 1.37 µM in the test on HCT-116 colon; 1.41 µM with HOP-62 NSCLC; 2.28 µM in the test on MCF7 breast; 1.73 µM in the test with MDA-MB-435. For the same compound, the GI50 was 1.41 µM in the test with NCI-H460 lung, 1.78 µM in the test with RPMI-8226 leukemia, 2 µM in the test on SN12C renal and 1.77 µM with UACC-62 melanoma. The TGI in the test on A498 renal was determined as 13.8 µM; in the test with DU-145 prostate, 2.78 µM; in the test with HCT-116 colon, 2.65 µM; in the test on HOP-62 NSCLC, 2.8 µM; in the test with MCF7 breast, 8.18 µM; in the test on MDA-MB-435 it was 3.26 µM. Further, the TGI with NCI-H460 lung amounted to 2.71 µM; in the test on RPMI-8226 leukemia, 4.91 µM; in the test with SN12C renal it was 4.72 µM; in the test with UACC-62 melanoma it was 3.65 µM.
As for `C[C@H](Nc1ncnc2nc[nH]c12)c1cc2cccc(Cl)c2c(=O)n1-c1ccccc1`, the GI50 in the test with A498 renal was 0.0491 µM; in the test on DU-145 prostate, 26.2 µM; with HCT-116 colon it was 18.4 µM; in the test with HOP-62 NSCLC, 30.3 µM; in the test on MCF7 breast, 3.16 µM; with MDA-MB-435, 19.4 µM. Moreover, the GI50 with NCI-H460 lung was 12.6 µM; in the test on RPMI-8226 leukemia, 60.3 µM; in the test on SN12C renal, 3.11 µM; in the test with UACC-62 melanoma, 2.6 µM. For the same compound, the TGI was 0.446 µM in the test on A498 renal; above 100 µM in the test on DU-145 prostate; above 100 µM in the test on HCT-116 colon; above 100 µM with HOP-62 NSCLC; above 100 µM in the test on MCF7 breast; above 100 µM in the test on MDA-MB-435. Moreover, the TGI in the test with NCI-H460 lung, in the test on RPMI-8226 leukemia, in the test on SN12C renal and with UACC-62 melanoma was above 100 µM each time.
Regarding `O=C(c1ccccc1)C1N=NCC1c1ccc([N+](=O)[O-])cc1` (stereo not given), the TGI in the test on A498 renal was above 100 µM; in the test on DU-145 prostate it was above 100 µM; in the test with HCT-116 colon it was above 100 µM; in the test on HOP-62 NSCLC, above 100 µM; in the test with MCF7 breast it was 56.9 µM; with MDA-MB-435 it was above 100 µM. Further, the TGI in the test with NCI-H460 lung, in the test on RPMI-8226 leukemia, with SN12C renal and in the test with UACC-62 melanoma was above 100 µM throughout.
For the compound `Nc1ccn(Cc2ccc(C34CC5CC(CC(C5)C3)C4)c(O)c2)c(=O)n1`, the GI50 in the test on A498 renal was 59.4 µM; in the test on DU-145 prostate, above 100 µM; in the test with HCT-116 colon it was above 100 µM; in the test with HOP-62 NSCLC, 22.5 µM; in the test on MCF7 breast, 91.5 µM; in the test on MDA-MB-435, above 100 µM. Further, the GI50 with NCI-H460 lung, in the test on RPMI-8226 leukemia, in the test with SN12C renal and in the test on UACC-62 melanoma was above 100 µM each time. Besides, the TGI in the test with A498 renal is above 100 µM; in the test on DU-145 prostate it was above 100 µM; with HCT-116 colon it was above 100 µM; in the test on HOP-62 NSCLC, 76.4 µM; in the test with MCF7 breast it was above 100 µM; with MDA-MB-435 it was above 100 µM. Also, the TGI with NCI-H460 lung, in the test on RPMI-8226 leukemia, with SN12C renal and in the test on UACC-62 melanoma was above 100 µM each time.
For `COC1(C(=O)N[C@@H](C)c2ccc(-n3cc(F)cn3)nc2)CCC(c2nc(C)cc(Nc3cc(C)[nH]n3)n2)CC1` (stereo not given in full), the GI50 with A498 renal was 0.147 µM; with DU-145 prostate it was 1.8 µM; in the test on HCT-116 colon it was 2.61 µM; in the test on HOP-62 NSCLC, 1.34 µM; in the test on MCF7 breast, 1.53 µM; in the test with MDA-MB-435, 8.27 µM. The GI50 was 5.2 µM in the test with NCI-H460 lung, 7.18 µM with RPMI-8226 leukemia, 0.581 µM in the test with SN12C renal and 4.14 µM in the test with UACC-62 melanoma. Further, the TGI with A498 renal is 0.7 µM; with DU-145 prostate, 4.63 µM; in the test on HCT-116 colon, 14 µM; in the test with HOP-62 NSCLC it was 14.6 µM; with MCF7 breast it was 14.6 µM; with MDA-MB-435, 21.1 µM. The TGI with NCI-H460 lung stood at 18.5 µM; in the test on RPMI-8226 leukemia it was 40 µM; in the test with SN12C renal it was 12.4 µM; in the test with UACC-62 melanoma, 17.4 µM.
Take `CNC(=O)c1cncc(/C=C/c2ccccc2C)c1`: the GI50 with A498 renal was 17.4 µM; with DU-145 prostate, above 25 µM; in the test with HCT-116 colon, above 25 µM; in the test on HOP-62 NSCLC, above 25 µM; in the test with MCF7 breast it was above 25 µM; in the test with MDA-MB-435, above 25 µM. Also, the GI50 in the test with NCI-H460 lung, with RPMI-8226 leukemia, in the test with SN12C renal and with UACC-62 melanoma was above 25 µM each time. Moreover, the TGI in the test on A498 renal, in the test with DU-145 prostate, with HCT-116 colon, with HOP-62 NSCLC, with MCF7 breast and in the test on MDA-MB-435 was above 25 µM in each case. In addition, the TGI in the test on NCI-H460 lung, in the test on RPMI-8226 leukemia, in the test on SN12C renal and in the test with UACC-62 melanoma was above 25 µM each time.
For `O=CNc1c(Cl)cc2c(c1Cl)Cc1cc([N+](=O)[O-])ccc1-2`, the GI50 in the test on A498 renal was 4.07 µM; in the test with DU-145 prostate, 7.72 µM; in the test with HCT-116 colon, 1.02 µM; with HOP-62 NSCLC it was 5.76 µM; with MCF7 breast it was 0.34 µM; in the test with MDA-MB-435 it was 1.46 µM. Further, the GI50 with NCI-H460 lung is 2.88 µM; in the test on RPMI-8226 leukemia, 2.59 µM; with SN12C renal, 14.4 µM; with UACC-62 melanoma, 3.98 µM. For the same compound, the TGI in the test with A498 renal was 48.4 µM; with DU-145 prostate, above 49.9 µM; in the test with HCT-116 colon it was 19.7 µM; in the test with HOP-62 NSCLC, above 67.5 µM; in the test with MCF7 breast, above 100 µM; with MDA-MB-435, 3.63 µM. Also, the TGI with NCI-H460 lung is 39.5 µM; in the test on RPMI-8226 leukemia, above 100 µM; in the test on SN12C renal it was above 100 µM; in the test on UACC-62 melanoma it was above 100 µM.
